Consider three molecules from EP0866656B1, “USE OF N-SUBSTITUTED PYRIDONES AS TUMOR NECROSIS FACTOR ALPHA INHIBITORS” (MARGOLIN, Solomon B., priority 1995, dated 1997).

Data set [1] relates to TNF-α. As to conditions: cited from earlier work.
The subject of another data set is human T cells. The settings on record: cited from earlier work; for inhibition of T cell activation (proliferation and IL-2 secretion): anti-CD3 antibody.
In the next data set the test system is THP-1 cells. The settings on record: LPS-activated THP-1 cells; read-out: 1C50S, inhibition of TNF-α secretion; cited from earlier work.
Another data set relates to mouse T cells. As to conditions: cited from earlier work; for inhibition of T cell activation (proliferation and IL-2 secretion): anti-CD3 antibody.
The subject of data set [2] is TNF-α. The settings on record: oral dosing, serum TNF-α; cited from earlier work.
Data set [3] has as its system TNF-α. As to the kind of experiment: TNF-α synthesis within lysed macrophages, ELISA (Example II). It is filed as cell-based, murine. The settings on record: 60 minutes. As to the method:
In order to determine the direct impact of graded concentrations of pirfenidone upon the synthesis of TNF-α within the cytoplasm of murine macrophages, cell cultures of macrophages, grown in appropriate culture media, were treated with the respective concentrations pirfenidone for 60 minutes: (1) without exposure to LPS (controls) and (2) exposure to 1.0 pg/ml of LPS (E. coli.). Promptly after an exposure for 60 minutes, (a) the macrophages were separated from the culture medium by centrifugation, and (b) the macrophages were lysed. Subsequently, the lysed contents (cell cytoplasm and nucleus) from the macrophage cells were assayed via ELISA for TNF-α levels.
For orientation: In an ELISA, binding on a coated surface is turned into a signal by an enzyme label.

The subject of data set [4] is TNF-α. As to the kind of experiment: Endotoxin [LPS] shock in animals (Example III). As to conditions: i.p. dosages of 30-400 milligrams per kilogram of body weight. It is filed as in vivo.
Another data set concerns WEHI 164 cells. The data set can be described thus: Inhibition of synthesis and/or release of TNF-α from WEHI 164 cells. It counts as cell-based. The settings on record: in vitro, 33-900 micrograms/milliliter. An excerpt: (§1) In vitro, pirfenidone at concentrations of 33-900 micrograms/milliliter inhibited the synthesis and/or release of excessive and pathophysiologic amounts of TNF-α from WEHI 164 cells (Table 1, page 40). […]
(§2) The ability of pirfenidone and related compounds to block the synthesis and the release of TNF-α from macrophages, as well as other cells, was bioassayed by the method of Morgan, Mills, D.L. Lefkowitz, and S.S. Lefkowitz ("An Improved Colorimetric Assay for Tumor Necrosis Factor Using […] Cells Cultured on Novel Microtiter Plates," Jour. Immunol. Method., 145:259-262, 1991).

A short description of data set [5]: Lethality caused by LPS plus D-galactosamine in mice (Example IV). It is filed as in vivo.
The test system of data set [6] is TNF-α. The data set can be described thus: TNF induction by macrophages exposed to LPS (TNF bioassay of culture medium). It counts as cell-based, murine. The settings on record: for TNF induction by macrophages exposed to LPS, Mean +/- S.E.: mean of experiments 1-6.
Source text: (§3) The reduction was directly related to the concentration of pirfenidone in the culture media.
as §2

The test system of data set [7] is WEHI neoplastic fibroblast cells. As to the kind of experiment: Killing of WEHI neoplastic fibroblast cells by TNF-α. It is filed as cell-based. The settings on record: in vitro, 33 to 300 micrograms/milliliter.
Source text: as §1

Data set [8] deals with TNF-α. As to the kind of experiment: In vivo induction of circulating (serum) TNF-α by LPS in mice. As to the method: This model is a modification of that previously described for the in vivo induction of circulating TNF-α, (Haranaka et al., Cancer Immunol. Immunother, 18:87-90,1984).
The bioassays for TNF-α were confirmed in monitoring tests by using a modification of the basic sandwich ELISA method (Winston et al., "Current Protocols in Molecular Biology," page 11.2.1, Ausubel et al., Ed. 1987.) All other plasma levels of TNF were measured using a modification of the basic sandwich ELISA method (Winston et al., "Current Protocols in Molecular Biology," Pg. 11.2.1, Ausubel et al., Ed. 1987.).
The LPS was injected intravenously into the mice at a dosage of 2.5 micrograms (in a volume of […] from a stock solution of 100 micrograms per […]) per mouse, and the Pirfenidone was administered immediately thereafter. The mice were then bled by cardiac puncture 90 minutes later. Subsequently, the serum was analyzed for TNF-α by a ELISA kit (Endogen).

Data set [9] is described as follows: Diffusion capacity of the lungs (serial DLCO) in patients with pulmonary dysfunction. It is filed as in vivo. As to conditions: oral, preliminary tests.
The next data set has as its system macrophages. As to the kind of experiment: Toxicity to macrophages in culture. As to conditions: 0.9 mg/ml. It is filed as cell-based, murine.
Source text: as §3

Structures are written as SMILES. “And” between values parts separate entries of the source, which are not always exact repeats. Identical values can stand only once.

For the molecule `OCc1cc(C(O)CNCCCCCCOCCCCc2ccccc2)ccc1O` (stereo not shown) [salmeterol], the “inhibition of serum TNF-α levels” value in the data set with TNF-α [1] (LPS/galactosamine endotoxic shock) is given as “up to 94%”. Further, in the data set with TNF-α [1] (in vivo), the “animals protected from the lethal effects of the LPS/galactosamine mixture” value is on record as “less than 50%”. The “inhibition of T cell activation (proliferation and IL-2 secretion)” value with human T cells and with mouse T cells was “able to inhibit” each time. The “T cell inhibition, fold less potent than that for TNF-α production” value in the data set on human T cells and with mouse T cells was “about 10 fold” throughout. The IC50 in the data set on THP-1 cells was roughly 100 nM. In the data set on TNF-α [2], the duration of efficacy is 3 h.

One may read the mortality as the percentage killed. As for `Cc1ccc(=O)n(-c2ccccc2)c1` [pirfenidone, 5-Methyl-1-phenyl-2-(1H)-pyridone], the “LPS induced rise in TNF-α synthesis within cytoplasm and nucleus of macrophages” value with TNF-α [3] (LPS (E. coli.) 1.0 pg/ml, concentration related, P< 0.01) is recorded as “inhibition”. Further, the “levels of TNF-α within the cytoplasm of the macrophages” value in the data set on TNF-α [3] (controls, no exposure to LPS, 0.9 mg/ml) is recorded as “only baseline levels were found”. Further, the “pathophysiological toxic effects of TNF-α (endotoxin [LPS] shock)” value with TNF-α [4] is on record as “inhibited or completely blocked”. Further, the “synthesis and/or release of excessive and pathophysiologic amounts of TNF-α from WEHI 164 cells” value in the data set on WEHI 164 cells was “inhibited”. Also, in data set [5] (300 mg/kg i.p. 30 minutes prior to LPS plus D-galactosamine), the “serum levels of TNF-α in the surviving mice” value is on record as “approached normal baseline levels”. Moreover, the mortality in data set [5] (300 mg/kg i.p. 30 minutes prior to i.v. LPS plus 600mg/kg i.p. D-galactosamine, observed 2 days, 100.0% without pirfenidone) was found to be 10.0%. In addition, the “TNF induction by macrophages exposed to LPS, Mean +/- S.E.” value is given as 144+/-29 Relative TNF Units in the data set with TNF-α [6] (Pirfenidone 100 micrograms/ml), 84+/-31 Relative TNF Units in the data set with TNF-α [6] (Pirfenidone 300 micrograms/ml) and 43+/-18 Relative TNF Units in the data set with TNF-α [6] (Pirfenidone 900 micrograms/ml). For the same molecule, the “TNF induction by macrophages exposed to LPS” value in the data set with TNF-α [6] (Pirfenidone 100 micrograms/ml, pre-incubation 0 hours) was 109 Relative TNF Units and 87 Relative TNF Units; with TNF-α [6] (Pirfenidone 100 micrograms/ml, pre-incubation 24 hours), 209 Relative TNF Units; with TNF-α [6] (Pirfenidone 300 micrograms/ml, pre-incubation 24 hours) it was 143 Relative TNF Units; in the data set with TNF-α [6] (Pirfenidone 900 micrograms/ml, pre-incubation 24 hours) it was 111 Relative TNF Units. In the data set with TNF-α [6] (thioglycollate-induced murine peritoneal macrophages exposed to LPS, P<0.01), the “level of TNF-α secreted into the culture medium” value is reported as “markedly reduced level”. Further, the “killing of WEHI neoplastic fibroblast cells by TNF-α” value in data set [7] is “did not inhibit”. Besides, the “inhibition of the rise in TNF-α serum levels as compared to Control Group” value in the data set with TNF-α [8] (LPS 2.5 micrograms i.v. per mouse, bled 90 minutes later) is on record as 50%. Besides, in the data set on TNF-α [8] (mice, 200 milligrams per kilogram intraperitoneal or greater, maintained for hours), the “formation and release of TNF-α into the circulation” value is “complete blockage”. For the same molecule, the “efficacy when given orally (rise in TNF-α serum levels)” value with TNF-α [8] (oral, same dosages) was “effective in the same dosages”. The “diffusion capacity of the lungs as measured by serial DLCO determinations” value in data set [9] was “marked, rapid and consistent improvement”. The toxicity with macrophages entry in the data set with macrophages was “No toxicity was apparent”.

In the case of `CC(C)(C)NCC(O)c1ccc(O)c(CO)c1` (stereo not shown) [albuterol], the “inhibition of T cell activation (proliferation and IL-2 secretion)” value in the data set with human T cells and with mouse T cells was “completely inactive” in each case. Moreover, in the data set with TNF-α [2], the duration of efficacy entry was “much shorter duration of action”.
